# How the values were obtained:
# [1] = target: human CB1 receptor (Homo sapiens, UniProt P21554); test: CB1 (h) receptor ligand binding (competition)
# Text: (§1) The specific ligand binding to the receptors is defined as the difference between complete binding and non-specific binding determined in the presence of an excess of unlabelled ligand (see, for example, MUNRO, S., THOMAS, K. L. and ABU-SHAAR, M. (1993), Molecular characterisation of a peripheral receptor for cannabinoids.
# (§2) The IC50 values (concentration necessary for half-maximum inhibition of the specific control binding) and Hill coefficients (nH) are obtained by non-linear regression analyses of the competition curves, with the curve matching being carried out in accordance with the Hill equation.
# (§3) The inhibition constants (Ki) are calculated in accordance with the Cheng Prusoff equation (Ki=IC50/1+(L/KD)).
# [2] = target: human CB2 receptor (Homo sapiens, UniProt P34972); test: CB2 (h) receptor ligand binding (competition)
# Text: as §1, §2, §3
# [3] = calculated by Cheng Prusoff equation
# [4] = half-maximum inhibition of specific control binding
# [5] = non-linear regression of competition curve
# Chain of human CB2 receptor (P34972 whole entry): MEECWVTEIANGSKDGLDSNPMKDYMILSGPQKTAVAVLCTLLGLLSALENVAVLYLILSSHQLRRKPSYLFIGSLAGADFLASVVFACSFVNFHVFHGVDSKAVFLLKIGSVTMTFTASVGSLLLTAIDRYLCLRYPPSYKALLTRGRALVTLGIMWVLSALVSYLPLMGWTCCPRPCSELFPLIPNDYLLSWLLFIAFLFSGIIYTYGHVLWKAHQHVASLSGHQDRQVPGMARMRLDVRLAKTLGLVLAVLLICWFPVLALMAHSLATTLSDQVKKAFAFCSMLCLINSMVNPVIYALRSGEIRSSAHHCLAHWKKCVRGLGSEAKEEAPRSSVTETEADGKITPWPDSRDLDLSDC
# Chain of human CB1 receptor (P21554 whole entry): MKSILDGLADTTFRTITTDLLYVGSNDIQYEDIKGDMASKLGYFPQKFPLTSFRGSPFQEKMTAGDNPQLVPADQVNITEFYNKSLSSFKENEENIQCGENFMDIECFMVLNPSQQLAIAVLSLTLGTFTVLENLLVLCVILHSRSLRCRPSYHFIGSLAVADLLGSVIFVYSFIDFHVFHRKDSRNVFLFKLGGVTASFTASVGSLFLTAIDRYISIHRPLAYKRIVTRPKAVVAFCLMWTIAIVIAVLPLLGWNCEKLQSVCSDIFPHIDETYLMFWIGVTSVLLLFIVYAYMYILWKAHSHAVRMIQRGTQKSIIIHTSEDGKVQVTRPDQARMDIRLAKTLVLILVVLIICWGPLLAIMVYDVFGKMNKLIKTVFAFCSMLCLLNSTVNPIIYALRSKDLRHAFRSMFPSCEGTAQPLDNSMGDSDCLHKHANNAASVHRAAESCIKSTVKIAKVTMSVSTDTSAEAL
structure (smiles),measurement,setting,value
CCCCCc1cc(O)c2c(c1)OC(F)(F)C1CCCCC21 (stereo not drawn) [Compound Ia],Ki,[1]; [3],1900 nM
same,IC50,[1]; [4],2200 nM
same,nH (Hill coefficient),[1]; [5],1.5
same,Ki,[2]; [3],920 nM
same,IC50,[2]; [4],1400 nM
same,nH (Hill coefficient),[2]; [5],0.9

# From US8133887B2, “Oxaphenanthrene derivatives” (Merck Patent GmbH, priority 2005, dated 2012)
